Where “and” joins values, the source holds several entries; their conditions need not be identical. Equal entries are not always repeated.
Test system: 624824-186-R-J3-PDC multicell spheroids, viability
Assay: Anticancer human tumor 624824-186-R-J3-PDC patient-derived colon adenocarcinoma cell line growth inhibition [PI3K]
Details: for viability, T/C: stronger effect = lower value; active = viability on the fitted dose curve at most 10% of control; inactive = the rest
Text: Combinatorial screen of targeted agents with the PI3K inhibitors inavolisib, alpelisib, duvelisib, and copanlisib in multi-cell type tumor spheroids
A high-throughput screen of multi-cell type tumor spheroids was designed to identify active combinations of targeted small molecules and PI3K pathway inhibitors. Complex spheroids include a stromal component modeled by human endothelial cells (HUVEC) and fibroblasts modeled by human mesenchymal stem cells (MSCs). The concentration ranges selected for each drug and investigational agent were based upon clinically achievable concentrations if the clinical Cmax of the agent was known.
Compounds. The drugs and investigational agents: inavolisib (NSC800729), alpelisib (NSC765974), duvelisib (NSC772469), copanlisib (NSC816437), ipatasertib (NSC767898), afuresertib (NSC778305), talazoparib (NSC767125), sapanisertib (NSC764658), selumetinib (NSC741078), tovorafenib (DAY101, NSC766906), vemurafenib (NSC761431), ravoxertinib (NSC781343), sotorasib (NSC818433), MRTX1133 (NSC 836407), abemaciclib (NSC 768073), palbociclib (NSC758247), venetoclax (NSC 766270), SY5609 (NSC837396), enzalutamide (NSC755605), and darolutamide (NSC825331), were obtained from the National Cancer Institute (NCI) Developmental Therapeutics Program Chemical Repository. The FDA-approved anticancer drug set is available from the NCI Developmental Therapeutics Program. […] The stock solutions were prepared in dimethyl sulfoxide (DMSO, Sigma-Aldrich, St. Louis, MO, cat. D2650) at 800-fold the tested concentration and stored at -70 degrees C prior to their use. All drugs and investigational agents were tested over a range starting from a high concentration at or near the clinical Cmax and decreasing in half-log increments. If the clinical Cmax for an agent had not been determined, the highest concentration tested was 10 microM.
Cell Culture. All cells were maintained in an incubator at 37 degrees C and 5% CO2 with 95% humidity. The PDC lines were cultured according to standard operating procedures established by the NCI PDMR (https://pdmr.cancer.gov/sops/default.htm). All PDCs were thawed and cultured in Matrigel-coated flasks prepared with a working solution of 1X Ham's F-12 nutrient mix, without supplementation (Invitrogen, Waltham, MA, cat. 11765054), 100 U/mL penicillin-streptomycin (Invitrogen, cat. 15140122), and 2.5% Matrigel (Corning Inc., Corning, NY, cat. 354248) for the first three passages. The 354836-022-R-J1-PDC, 475296-252-R-J1-PDC, and 997726-040-R-J2-PDC lines were cultured in 6A media, which includes advanced DMEM/F-12 (Thermo Fisher Scientific, cat. 12634028), 10 mM HEPES (Thermo Fisher Scientific, cat. 15630080), 1X GlutaMAX supplement (Thermo Fisher Scientific, cat. 35050061), 0.1 mg/mL primocin (InvivoGen, San Diego, CA, cat. ant-pm-2), 10% defined fetal bovine serum, heat inactivated (HyClone Laboratories Inc., Logan, UT, cat. SH30070.03HI), 50% L-WRN conditioned media (ATCC, cat. CRL-3276), 1.25 mM N-Acetyl-L-cysteine (Sigma-Aldrich, cat. A9165), 10 mM nicotinamide (Sigma-Aldrich, cat. N0636), 1X B-27 supplement (Thermo Fisher Scientific, cat. 17504044), 1X N-2 supplement (Thermo Fisher Scientific, cat. 17502048), and 10 microM Y-27632 dihydrochloride (Tocris Bioscience, Bristol, United Kingdom, cat. 1254). The 624824-186-R-J2-PDC line was cultured in 6C/Colon 1B media, which includes all 6A media components plus 50 ng/mL human EGF recombinant protein (Thermo Fisher Scientific, cat. PHG0311). […]
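Note: spheroids exposed to agents for seven days before luminescence read.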
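Throughout, for viability, T/C: luminescent signal used as a stand-in for spheroid viability; percent viability relative to DMSO vehicle control wells taken as 100%.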

C#Cc1c(F)ccc2cc(O)cc(-c3ncc4c(N5CC6CCC(C5)N6)nc(OCC56CCCN5CC(F)C6)nc4c3F)c12 (configuration not stated)
> 10 µM: IC50 (curve of compound)
inactive: viability, T/C (compound 0.0316 µM) 120% and 98.2% and 102% (2×) | viability, T/C (compound 0.1 µM) 105% and 102% (2×) and 101% | viability, T/C (compound 0.316 µM) 101% [middle of 4 runs] | viability, T/C (compound 1 µM) 101% [middle of 4 runs] | viability, T/C (compound 3.16 µM) 108% [middle of 4 runs] | viability, T/C (compound 10 µM) 107% [middle of 4 runs]

C=CC(=O)N1CCN(c2nc(=O)n(-c3c(C)ccnc3C(C)C)c3nc(-c4c(O)cccc4F)c(F)cc23)C(C)C1 (configuration not stated)
inactive: viability, T/C (compound 0.0316 µM) 103% [middle of 4 runs] | viability, T/C (compound 0.1 µM) 94.8% [middle of 4 runs] | viability, T/C (compound 0.316 µM) 103% [middle of 4 runs] | viability, T/C (compound 1 µM) 94.3% [middle of 4 runs] | viability, T/C (compound 3.16 µM) 104% [middle of 4 runs] | viability, T/C (compound 10 µM) 106% and 108% (3×)
> 10 µM: IC50 (curve of compound)

CC(Cn1ccc(-c2ccc(C#N)c(Cl)c2)n1)NC(=O)c1cc(C(C)O)[nH]n1 (configuration not stated)
> 10 µM: IC50 (curve of compound)
inactive: viability, T/C (compound 0.0316 µM) 96.5% [middle of 4 runs] | viability, T/C (compound 0.1 µM) 97.2% [middle of 4 runs] | viability, T/C (compound 0.316 µM) 105% [middle of 4 runs] | viability, T/C (compound 1 µM) 95.5% [middle of 4 runs] | viability, T/C (compound 3.16 µM) 99.4% [middle of 4 runs] | viability, T/C (compound 10 µM) 104% [middle of 4 runs]

CC1(C)CCC(CN2CCN(c3ccc(C(=O)NS(=O)(=O)c4ccc(NCC5CCOCC5)c([N+](=O)[O-])c4)c(Oc4cnc5[nH]ccc5c4)c3)CC2)=C(c2ccc(Cl)cc2)C1
inactive: viability, T/C (compound 0.0316 µM) 101% [middle of 4 runs] | viability, T/C (compound 0.1 µM) 99.1% [middle of 4 runs] | viability, T/C (compound 0.316 µM) 103% (2×) and 102% and 107% | viability, T/C (compound 1 µM) 105% [middle of 4 runs] | viability, T/C (compound 3.16 µM) 110% [middle of 4 runs]

CC1(C)CCC(Nc2ncc(C(F)(F)F)c(-c3c[nH]c4c(P(C)(C)=O)c(C#N)ccc34)n2)CN1 (configuration not stated)
active: viability, T/C (compound 10 µM) 4.6% [middle of 4 runs]
inactive: viability, T/C (compound 0.0316 µM) 106% [middle of 4 runs] | viability, T/C (compound 0.1 µM) 87.3% [middle of 4 runs] | viability, T/C (compound 0.316 µM) 96.5% [middle of 4 runs] | viability, T/C (compound 1 µM) 96.9% [middle of 4 runs] | viability, T/C (compound 3.16 µM) 100% [middle of 4 runs]
5.64 µM [middle of 4 runs]: IC50 (curve of compound)

CCCS(=O)(=O)Nc1ccc(F)c(C(=O)c2c[nH]c3ncc(-c4ccc(Cl)cc4)cc23)c1F
11.9% [middle of 4 runs]: viability, T/C (compound 10 µM)
inactive: viability, T/C (compound 0.0316 µM) 99.1% [middle of 4 runs] | viability, T/C (compound 0.1 µM) 97.5% [middle of 4 runs] | viability, T/C (compound 0.316 µM) 102% [middle of 4 runs] | viability, T/C (compound 1 µM) 95.5% [middle of 4 runs] | viability, T/C (compound 3.16 µM) 86% [middle of 4 runs]
5.47 µM [middle of 4 runs]: IC50 (curve of compound)

CNC(=O)c1ccc(N2C(=S)N(c3ccc(C#N)c(C(F)(F)F)c3)C(=O)C2(C)C)cc1F
> 10 µM: IC50 (curve of compound)
inactive: viability, T/C (compound 0.0316 µM) 103% [middle of 4 runs] | viability, T/C (compound 0.1 µM) 102% [middle of 4 runs] | viability, T/C (compound 0.316 µM) 107% [middle of 4 runs] | viability, T/C (compound 1 µM) 104% [middle of 4 runs] | viability, T/C (compound 3.16 µM) 106% [middle of 4 runs] | viability, T/C (compound 10 µM) 104% [middle of 4 runs]

Cn1ncc(Cl)c1-c1cc(C(=O)NC(CN)Cc2cccc(F)c2)sc1Cl (configuration not stated)
8.4 µM and > 10 µM and 5.42 µM: IC50 (curve of compound)
inactive: viability, T/C (compound 0.0316 µM) 104% [middle of 4 runs] | viability, T/C (compound 0.1 µM) 101% (2×) and 112% and 104% | viability, T/C (compound 0.316 µM) 95.1% [middle of 4 runs] | viability, T/C (compound 1 µM) 76.3% [middle of 4 runs] | viability, T/C (compound 3.16 µM) 67.9% [middle of 4 runs]

Cn1nccc1Nc1nccc(-c2ccn(C(CO)c3ccc(Cl)c(F)c3)c(=O)c2)n1 (configuration not stated)
> 10 µM: IC50 (curve of compound)
inactive: viability, T/C (compound 0.0316 µM) 102% [middle of 4 runs] | viability, T/C (compound 0.1 µM) 95.1% [middle of 4 runs] | viability, T/C (compound 0.316 µM) 95.9% [middle of 4 runs] | viability, T/C (compound 1 µM) 80.8% [middle of 4 runs] | viability, T/C (compound 3.16 µM) 69.3% [middle of 4 runs] | viability, T/C (compound 10 µM) 60.9% [middle of 4 runs]

CNC(=O)c1ccc(N2C(=S)N(c3ccc(C#N)c(C(F)(F)F)c3)C(=O)C2(C)C)cc1F + CC(Nc1ccc2c(c1)OCCn1cc(N3C(=O)OCC3C(F)F)nc1-2)C(N)=O
> 10 µM: IC50 (curve of first compound, second compound 0.00316 µM) | IC50 (curve of first compound, second compound 0.01 µM) | IC50 (curve of first compound, second compound 0.0316 µM) | IC50 (curve of first compound, second compound 0.1 µM) | IC50 (curve of first compound, second compound 0.316 µM) | IC50 (curve of first compound, second compound 1 µM)
inactive: viability, T/C (second compound 0.00316 µM, first compound 0.0316 µM) 105% | viability, T/C (second compound 0.00316 µM, first compound 0.1 µM) 104% | viability, T/C (second compound 0.00316 µM, first compound 0.316 µM) 104% | viability, T/C (second compound 0.00316 µM, first compound 1 µM) 87.4% | viability, T/C (second compound 0.00316 µM, first compound 3.16 µM) 97% | viability, T/C (second compound 0.00316 µM, first compound 10 µM) 106% | viability, T/C (second compound 0.01 µM, first compound 0.0316 µM) 103% | viability, T/C (second compound 0.01 µM, first compound 0.1 µM) 101% | viability, T/C (second compound 0.01 µM, first compound 0.316 µM) 108% | viability, T/C (second compound 0.01 µM, first compound 1 µM) 97.1% | viability, T/C (second compound 0.01 µM, first compound 3.16 µM) 96.1% | viability, T/C (second compound 0.01 µM, first compound 10 µM) 99.1% | viability, T/C (second compound 0.0316 µM, first compound 0.0316 µM) 95.4% | viability, T/C (second compound 0.0316 µM, first compound 0.1 µM) 104% | viability, T/C (second compound 0.0316 µM, first compound 0.316 µM) 102% | viability, T/C (second compound 0.0316 µM, first compound 1 µM) 97.3% | viability, T/C (second compound 0.0316 µM, first compound 3.16 µM) 99.5% | viability, T/C (second compound 0.0316 µM, first compound 10 µM) 99.6% | viability, T/C (second compound 0.1 µM, first compound 0.0316 µM) 99.6% | viability, T/C (second compound 0.1 µM, first compound 0.1 µM) 101% | viability, T/C (second compound 0.1 µM, first compound 0.316 µM) 103% | viability, T/C (second compound 0.1 µM, first compound 1 µM) 101% | viability, T/C (second compound 0.1 µM, first compound 3.16 µM) 109% | viability, T/C (second compound 0.1 µM, first compound 10 µM) 80.3% | viability, T/C (second compound 0.316 µM, first compound 0.0316 µM) 89.4% | viability, T/C (second compound 0.316 µM, first compound 0.1 µM) 90% | viability, T/C (second compound 0.316 µM, first compound 0.316 µM) 94.2% | viability, T/C (second compound 0.316 µM, first compound 1 µM) 97.8% | viability, T/C (second compound 0.316 µM, first compound 3.16 µM) 92% | viability, T/C (second compound 0.316 µM, first compound 10 µM) 82% | viability, T/C (second compound 1 µM, first compound 0.0316 µM) 90.6% | viability, T/C (second compound 1 µM, first compound 0.1 µM) 89.2% | viability, T/C (second compound 1 µM, first compound 0.316 µM) 95.8% | viability, T/C (second compound 1 µM, first compound 1 µM) 90.5% | viability, T/C (second compound 1 µM, first compound 3.16 µM) 88.9% | viability, T/C (second compound 1 µM, first compound 10 µM) 76.4%
